Results reported in US12016852B2, “Pyrrolidine glycosidase inhibitors” (Asceneuron SA, priority 2018, dated 2024).

Each compound was assayed against T1, Human O-GlcNAcase (His-Tagged hOGA) (Homo sapiens, UniProt O60502) (assay: Human O-GlcNAcase enzyme inhibition assay). Details: 20 nM His-Tagged hOGA, 10 μM FL-GlcNAc, McIlvaine's Buffer pH 6.5, 60 min at room temperature, fluorescence; read-out: OGA IC50.
T1 sequence (O60502 1-916): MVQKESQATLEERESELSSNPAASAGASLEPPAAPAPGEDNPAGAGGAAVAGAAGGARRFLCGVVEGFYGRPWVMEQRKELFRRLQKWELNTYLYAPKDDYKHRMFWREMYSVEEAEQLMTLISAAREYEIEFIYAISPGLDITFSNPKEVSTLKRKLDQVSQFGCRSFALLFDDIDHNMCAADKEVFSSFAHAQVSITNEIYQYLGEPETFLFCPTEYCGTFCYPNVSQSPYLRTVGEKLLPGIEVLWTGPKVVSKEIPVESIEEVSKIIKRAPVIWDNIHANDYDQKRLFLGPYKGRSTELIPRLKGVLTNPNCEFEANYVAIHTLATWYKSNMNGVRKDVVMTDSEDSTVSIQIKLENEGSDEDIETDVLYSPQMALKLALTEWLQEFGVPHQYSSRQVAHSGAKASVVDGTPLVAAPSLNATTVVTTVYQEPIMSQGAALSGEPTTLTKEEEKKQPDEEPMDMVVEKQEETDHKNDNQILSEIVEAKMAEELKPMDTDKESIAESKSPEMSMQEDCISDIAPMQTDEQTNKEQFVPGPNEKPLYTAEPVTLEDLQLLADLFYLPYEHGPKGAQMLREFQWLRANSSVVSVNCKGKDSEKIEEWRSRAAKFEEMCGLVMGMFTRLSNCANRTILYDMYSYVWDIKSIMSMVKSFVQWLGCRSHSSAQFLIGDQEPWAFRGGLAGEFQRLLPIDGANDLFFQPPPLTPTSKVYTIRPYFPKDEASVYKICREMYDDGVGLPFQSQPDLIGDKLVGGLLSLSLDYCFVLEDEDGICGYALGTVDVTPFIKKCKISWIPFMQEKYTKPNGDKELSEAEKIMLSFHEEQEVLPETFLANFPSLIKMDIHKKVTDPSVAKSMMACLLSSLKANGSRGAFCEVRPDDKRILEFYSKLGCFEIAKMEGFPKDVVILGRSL
Assay type: biochemical
Protocol: Example B01: Human O-GlcNAcase Enzyme Inhibition Assay
5 μl of the appropriate concentration of a solution of inhibitor in Mcllvaine's Buffer (pH 6.5) in 2% DMSO (for a dose response curve calculation) is added into each well of a 384-well plate (Greiner, 781900). Then, 20 nM of His-Tagged hOGA and 10 μM of FL-GlcNAc (Fluorescein mono-beta-D-(2-deoxy-2-N-acetyl) glucopyranoside; Marker Gene Technologies Inc, M1485) were added to the 384-well plate for a final volume of 20 μl. After incubation for 60 min at room temperature, the reaction was terminated by the addition of 10 μL of stop buffer (200 mM glycine, pH 10.75). The level of fluorescence (λexc 485 nm; (λemm 520 nm) was read on a PHERAstar machine. The amount of fluorescence measured was plotted against the concentration of inhibitor to produce a sigmoidal dose response curve to calculate an IC50. All individual data was corrected by subtraction of the background (Thiamet 3 uM=100% inhibition) whilst 0.5% DMSO was considered as the control value (no inhibition).

c1ncn(-c2ccc(CN3CCCC3c3ccc4c(c3)OCCO4)cc2)n1 (single isomer, unassigned) [Example 48, (S)-1-(4-((2-(2,3-dihydrobenzo[b] [1,4]dioxin-6-yl)pyrrolidin-1-yl)methyl) Phenyl)-1H-1,2,4-triazole or (R)-1-(4-((2-(2,3-dihydrobenzo[b] [1,4]dioxin-6-yl)pyrrolidin-1-yl)methyl)phenyl)-1 H-1,2,4-triazole] and Cn1cc(-c2ccc(CN3CCCC3c3ccc4c(c3)OCCO4)cc2)cn1 (racemic) [Example 4, 4-(4-((2-(2,3-dihydrobenzo[b] [1,4]dioxin-6-yl)pyrrolidin-1-yl)methyl)phenyl)-1-methyl-1H-pyrazole] fall in the same range of IC50: 0.05 to 0.2 µM for the first, 0.05 to 0.2 µM for the second.

First: Cc1cc(CN2CCCC2c2ccc3c(c2)OCCO3)ccc1-c1cccnc1C (racemic) [Example 71, 3-(4-((2-(2,3-dihydrobenzo[b] [1,4]dioxin-6-yl)pyrrolidin-1-yl)methyl)-2-methylphenyl)-2-methylpyridine]
Second: Cc1cnccc1-c1ccc(CN2CCCC2c2ccc3c(c2)OCCO3)cc1C (racemic) [Example 70, 4-(4-((2-(2,3-dihydrobenzo[b] [1,4]dioxin-6-yl)pyrrolidin-1-yl)methyl)-2-methylphenyl)-3-methylpyridine]
The IC50 of the first is lower: 0.2 to 1 µM for the first, 1 to 10 µM for the second. The first is the more potent here.

Cn1cc(-c2ccc(CN3CCCC3c3ccc4c(c3)OCCO4)nc2)cn1 (single isomer, unassigned) [Example 145] and Cn1cc(-c2ccc(CN3CCCC3c3ccc4c(c3)OCO4)cc2)cn1 (racemic) [Example 72, 4-(4-((2-(benzo[d] [1,3]dioxol-5-yl)pyrrolidin-1-yl)methyl)phenyl)-1-methyl-1H-pyrazole] fall in the same range of IC50: 0.2 to 1 µM for the first, 0.2 to 1 µM for the second.

c1cnc(-c2ccc(CN3CCCC3c3ccc4c(c3)OCCO4)cc2)nc1 (single isomer, unassigned) [Example 75, (S)-2-(4-((2-(2,3-dihydrobenzo[b] [1,4]dioxin-6-yl)pyrrolidin-1-yl)methyl)phenyl)pyrimidine or (R)-2-(4-((2-(2,3-dihydrobenzo[b] [1,4]dioxin-6-yl)pyrrolidin-1-yl)methyl)phenyl)pyrimidine] and c1csc(-c2ccc(CN3CCCC3c3ccc4c(c3)OCCO4)cc2)n1 (racemic) [Example 58, 2-(4-((2-(2,3-dihydrobenzo[b] [1,4]dioxin-6-yl)pyrrolidin-1-yl)methyl)phenyl)thiazole] fall in the same range of IC50: 0.05 to 0.2 µM for the first, 0.05 to 0.2 µM for the second.

First: Cc1noc(C)c1-c1ccc(CN2CCCC2c2ccc3c(c2)OCCO3)cc1 (racemic) [Example 54, 4-(4-((2-(2,3-dihydrobenzo[b] [1,4]dioxin-6-yl)pyrrolidin-1-yl)methyl)phenyl)-3,5-dimethylisoxazole]
Second: c1cncc(-c2ccc(CN3CCCC3c3ccc4c(c3)OCCO4)cc2)c1 (racemic) [Example 30, 3-(4-((2-(2,3-dihydrobenzo[b] [1,4]dioxin-6-yl)pyrrolidin-1-yl)methyl)phenyl) pyridine]
The IC50 of the first is higher: 1 to 10 µM for the first, 0.05 to 0.2 µM for the second.

Compared with CS(=O)(=O)c1cncc(-c2ccc(CN3CCCC3c3ccc4c(c3)OCCO4)cc2)c1 (racemic) [Example 63, 3-(4-((2-(2,3-dihydrobenzo[b] [1,4]dioxin-6-yl)pyrrolidin-1-yl)methyl)phenyl)-5-(methylsulfonyl)pyridine], Brc1cncc(Oc2ccc(CN3CCCC3c3ccc4c(c3)OCCO4)cc2)c1 (racemic) [Example 153] is higher in IC50: 0.05 to 0.2 µM for the first, 0.2 to 1 µM for the second. The first is the more potent here.

Fc1cccc(Oc2ccc(CN3CCCC3c3ccc4c(c3)OCCO4)cc2)n1 (racemic) [Example 157] and c1ccc2ncc(CN3CCCC3c3ccc4c(c3)OCCO4)cc2c1 (racemic) [Example 26, 3-((2-(2,3-dihydrobenzo[b] [1,4]dioxin-6-yl)pyrrolidin-1-yl)methyl)quinoline] fall in the same range of IC50: 0.2 to 1 µM for the first, 0.2 to 1 µM for the second.

O=C1CSCCN1c1ccc(CN2CCCC2c2ccc3c(c2)OCCO3)cc1 (racemic) [Example 67, 4-(4-((2-(2,3-dihydrobenzo[b] [1,4]dioxin-6-yl)pyrrolidin-1-yl)methyl)phenyl)thiomorpholin-3-one] was tested, and the IC50 was 0.2 to 1 µM.
